Assay results taken from patent US11667649B2, “Heteroaromatic macrocyclic ether chemotherapeutic agents” (Nuvalent, Inc., priority 2020, dated 2023).

System: TPM3-NTRK1-wt IC50 / primary target (e.g. CD74-ROS1-wt) IC50, Ba/F3 cells
Assay: Cell assay TRKA selectivity (TRKA potency divided by primary target potency)
Type: cell-based
Conditions: for TPM3-NTRK1-wt/CD74-ROS1-G2032R: TRKA selectivity ratio: TPM3-NTRK1-wt IC50 / CD74-ROS1-G2032R IC50, Ba/F3 cells; for TPM3-NTRK1-wt/CD74-ROS1-wt: TRKA selectivity ratio: TPM3-NTRK1-wt IC50 / CD74-ROS1-wt IC50, Ba/F3 cells; for TPM3-NTRK1-wt/EML4-ALK-L1196M-G1202R: TRKA selectivity ratio: TPM3-NTRK1-wt IC50 / EML4-ALK-L1196M-G1202R IC50, Ba/F3 cells; for TPM3-NTRK1-wt/EML4-ALK-wt: TRKA selectivity ratio: TPM3-NTRK1-wt IC50 / EML4-ALK-wt IC50, Ba/F3 cells
From the text: Genes encoding CD74-ROS1 wild-type (wt), CD74-ROS1 G2032R, CD74-ROS1 S1986F, CD74-ROS1 L2026M, CD74-ROS1 D2033N, EML4-ALK wt (variant 1), EML4-ALK G1202R (variant 1), EML4-ALK L1196M/G1202R (variant 1), EML4-ALK G1202R/G1269A (variant 1), EML4-ALK G1202R/L1198F (variant 1), and TPM3-TRKA were synthesized at GeneRay, cloned into the retroviral construct pMSCV-puro (Biovector), and packaged into retroviral particles. The virus was used to infect Ba/F3 cells (RIKEN) at multiplicity of infection=1 for 1 day. Infected cells were rescued in media (RPMI-1640 with 10% fetal bovine serum and 1% streptomycin and penicillin) supplemented with mouse IL-3 (10 ng/mL) for 2 days, and stable cell lines were selected by IL-3 withdrawal and puromycin (0.8 μg/mL) for 7 days. Monoclones were selected by single-cell dilution in IL-3-free medium containing puromycin (0.8 μg/mL). Transformation of desired genes was confirmed by Sanger sequencing and western blot using the following antibodies: ROS1 (CST #3287), ALK (CST #3633), and pan-TRK (Abcam #76291).
Stable cells were plated at 1,000 cells/well (40 μL) in a 384-well plate for 1 day. Test compounds (40 nL) were then added in a 3-fold dilution series using the TECAN EVO200 liquid handler and incubated for 72 hours. Plates were equilibrated at room temperature for 15 minutes followed by addition of 40 μL CellTiter-Glo reagent (Promega). Luminescence was measured on a plate reader. Half-maximal inhibitory concentration (IC50) was calculated from percent inhibition and inhibitor concentration using four-parameter logistic regression. […] Exemplary data is given in Table 4 (nd is not determined).
TRKA selectivity was calculated by dividing a compound's TRKA potency by its primary target potency (e.g. TPM3-NTRK1-wt IC50/CD74-ROS1-wt IC50). Compound selectivity can be interpreted by binning ratio values: bin A for very high selectivity, ratio>30-fold; bin B for high selectivity, ratio>10-fold; bin C for moderate selectivity, ratio≥1; and bin D for low selectivity, ratio<1. […] (nd=not determined).

Structure (SMILES) | TPM3-NTRK1-wt/CD74-ROS1-G2032R | TPM3-NTRK1-wt/CD74-ROS1-wt | TPM3-NTRK1-wt/EML4-ALK-L1196M-G1202R | TPM3-NTRK1-wt/EML4-ALK-wt
CCn1nc(Cl)c2c1-c1cnc(N)c(c1)O[C@H](C)c1cc(F)ccc1-c1nn(C)cc1C2 [Example 73, (19R)-5-chloro-3-ethyl-16-fluoro-10,19-dimethyl-20-oxa-3,4,10,11,23-pentaazapentacyclo[19.3.1.0^2,^6.0^8,^12.0^13,^18]pentacosa-1(24),2(6),4,8,11,13,15,17,21(25),22-decaen-22-amine] | A (bin A for very high selectivity, ratio>30-fold) | A (bin A for very high selectivity, ratio>30-fold) | B (bin B for high selectivity, ratio>10-fold) | A (bin A for very high selectivity, ratio>30-fold)
C[C@H]1Oc2cc(cnc2N)-c2c(C#N)ncn2Cc2cn(C)nc2-c2ccc(F)cc21 [Example 13, (19R)-22-amino-16-fluoro-10,19-dimethyl-20-oxa-4,6,10,11,23-pentaazapentacyclo[19.3.1.0^2,^6.0^8,^12.0^13,^18]pentacosa-1(24),2,4,8,11,13,15,17,21(25),22-decaene-3-carbonitrile] | A (bin A for very high selectivity, ratio>30-fold) | A (bin A for very high selectivity, ratio>30-fold) | A (bin A for very high selectivity, ratio>30-fold) | A (bin A for very high selectivity, ratio>30-fold)
CCn1ncc2c1-c1cnc(N)c(c1)OC(C)c1cc(F)ccc1-c1cnccc1C2 (stereo not drawn) [Example 35, 3-ethyl-17-fluoro-20-methyl-21-oxa-3,4,11,24-tetraazapentacyclo[20.3.1.0^2,^6.0^8,^13.0^14,^19]hexacosa-1(25),2(6),4,8(13),9,11,14,16,18,22(26),23-undecaen-23-amine] | A (bin A for very high selectivity, ratio>30-fold) | A (bin A for very high selectivity, ratio>30-fold) | C (bin C for moderate selectivity, ratio≥1) | A (bin A for very high selectivity, ratio>30-fold)
Cc1cc2n(n1)-c1ccc(F)cc1[C@@H](C)Oc1cc(cnc1N)-c1c(c(C)nn1CC1CC1)C2 [Example 141, (19R)-3-(cyclopropylmethyl)-16-fluoro-5,10,19-trimethyl-20-oxa-3,4,11,12,23-pentaazapentacyclo[19.3.1.0^2,^6.0^8,^12.0^13,^18]pentacosa-1(24),2(6),4,8,10,13,15,17,21(25),22-decaen-22-amine] | A (bin A for very high selectivity, ratio>30-fold) | A (bin A for very high selectivity, ratio>30-fold) | A (bin A for very high selectivity, ratio>30-fold) | A (bin A for very high selectivity, ratio>30-fold)
C[C@H]1Oc2cc(cnc2N)-c2c(C#N)nnn2Cc2cccnc2-c2ccc(F)cc21 [Example 25, (20R)-23-amino-17-fluoro-20-methyl-21-oxa-4,5,6,12,24-pentaazapentacyclo[20.3.1.0^2,^6.0^8,^13.0^14,^19]hexacosa-1(25),2,4,8(13),9,11,14,16,18,22(26),23-undecaene-3-carbonitrile] | A (bin A for very high selectivity, ratio>30-fold) | A (bin A for very high selectivity, ratio>30-fold) | B (bin B for high selectivity, ratio>10-fold) | A (bin A for very high selectivity, ratio>30-fold)
CCc1noc2c1-c1cnc(N)c(c1)O[C@H](C)c1cc(F)ccc1-c1nn(C)cc1C2 [Example 19, (19R)-3-ethyl-16-fluoro-10,19-dimethyl-5,20-dioxa-4,10,11,23-tetraazapentacyclo[19.3.1.0^2,^6.0^8,^12.0^13,^18]pentacosa-1(24),2(6),3,8,11,13,15,17,21(25),22-decaen-22-amine] | A (bin A for very high selectivity, ratio>30-fold) | A (bin A for very high selectivity, ratio>30-fold) | C (bin C for moderate selectivity, ratio≥1) | A (bin A for very high selectivity, ratio>30-fold)
C[C@H]1Oc2cc(cnc2N)-c2c(C#N)cnn2Cc2cn(C)nc2-c2ccc(F)cc21 [Example 9, (19R)-22-amino-16-fluoro-10,19-dimethyl-20-oxa-5,6,10,11,23-pentaazapentacyclo[19.3.1.0^2,^6.0^8,^12.0^13,^18]pentacosa-1(24),2,4,8,11,13,15,17,21(25),22-decaene-3-carbonitrile] | B (bin B for high selectivity, ratio>10-fold) | A (bin A for very high selectivity, ratio>30-fold) | C (bin C for moderate selectivity, ratio≥1) | A (bin A for very high selectivity, ratio>30-fold)
C[C@H]1Oc2cc(cnc2N)-c2c(nnn2CC2CC2)Cc2cn(C)nc2-c2ccc(F)cc21 [Example 29, (19R)-3-(cyclopropylmethyl)-16-fluoro-10,19-dimethyl-20-oxa-3,4,5,10,11,23-hexaazapentacyclo[19.3.1.0^2,^6.0^8,^12.0^13,^18]pentacosa-1(24),2(6),4,8,11,13,15,17,21(25),22-decaen-22-amine] | A (bin A for very high selectivity, ratio>30-fold) | A (bin A for very high selectivity, ratio>30-fold) | A (bin A for very high selectivity, ratio>30-fold) | A (bin A for very high selectivity, ratio>30-fold)
Cc1nn(CC(F)F)c2c1Cc1cn(C)nc1-c1ccc(F)cc1[C@@H](C)Oc1cc-2cnc1N [Example 79, (19R)-3-(2,2-difluoroethyl)-16-fluoro-5,10,19-trimethyl-20-oxa-3,4,10,11,23-pentaazapentacyclo[19.3.1.0^2,^6.0^8,^12.0^13,^18]pentacosa-1(24),2(6),4,8,11,13,15,17,21(25),22-decaen-22-amine] | A (bin A for very high selectivity, ratio>30-fold) | A (bin A for very high selectivity, ratio>30-fold) | A (bin A for very high selectivity, ratio>30-fold) | A (bin A for very high selectivity, ratio>30-fold)
Cc1cn2c(n1)-c1ccc(F)cc1[C@@H](C)Oc1cc(cnc1N)-c1c(c(C)nn1CC1CC1)C2 [Example 56, (19R)-3-(cyclopropylmethyl)-16-fluoro-5,10,19-trimethyl-20-oxa-3,4,8,11,23-pentaazapentacyclo[19.3.1.0^2,^6.0^8,^12.0^13,^18]pentacosa-1(24),2(6),4,9,11,13,15,17,21(25),22-decaen-22-amine] | D (bin D for low selectivity, ratio<1) | D (bin D for low selectivity, ratio<1) | D (bin D for low selectivity, ratio<1) | D (bin D for low selectivity, ratio<1)
CCn1nnc2c1-c1cnc(N)c(c1)O[C@H](C)c1cc(F)ccc1-c1sncc1C2 [Example 93, (19R)-3-ethyl-16-fluoro-19-methyl-20-oxa-11-thia-3,4,5,10,23-pentaazapentacyclo[19.3.1.0^2,^6.0^8,^12.0^13,^18]pentacosa-1(24),2(6),4,8(12),9,13,15,17,21(25),22-decaen-22-amine] | A (bin A for very high selectivity, ratio>30-fold) | A (bin A for very high selectivity, ratio>30-fold) | C (bin C for moderate selectivity, ratio≥1) | B (bin B for high selectivity, ratio>10-fold)
CC1Oc2cc(cnc2N)-c2c(cnn2C(F)F)Cn2ccnc2-c2ccc(F)cc21 (stereo not drawn) [Example 44, 3-(difluoromethyl)-16-fluoro-19-methyl-20-oxa-3,4,8,11,23-pentaazapentacyclo[19.3.1.0^2,^6.0^8,^12.0^13,^18]pentacosa-1(24),2(6),4,9,11,13,15,17,21(25),22-decaen-22-amine] | A (bin A for very high selectivity, ratio>30-fold) | A (bin A for very high selectivity, ratio>30-fold) | C (bin C for moderate selectivity, ratio≥1) | A (bin A for very high selectivity, ratio>30-fold)
